In patent US9546164B2 (GENENTECH, INC., priority 2013, dated 2017):
Where a name gives a salt, the structure may show the parent alone. Read-outs that look alike come from different tables or passages of the source.

Molecular target: hNav1.7 (Homo sapiens (Human), UniProt Q15858)
Assay: Tritiated sulfonamide competitive binding to membranes from cells expressing hNav1.7 and the β1 subunit;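 further: Filter-bound radioactivity counted by liquid scintillation, nonspecific binding defined with excess unlabelled ligand, IC50 fitted to percent inhibition of specific binding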
[1] = read-out: Ligand Binding Assay, 100 pM [3H]compound, membranes with hNav1.7 and β1 subunit, 18 h, room temperature

hNav1.7, sequence (Q15858 other isoform, or with tags, fused parts or gaps): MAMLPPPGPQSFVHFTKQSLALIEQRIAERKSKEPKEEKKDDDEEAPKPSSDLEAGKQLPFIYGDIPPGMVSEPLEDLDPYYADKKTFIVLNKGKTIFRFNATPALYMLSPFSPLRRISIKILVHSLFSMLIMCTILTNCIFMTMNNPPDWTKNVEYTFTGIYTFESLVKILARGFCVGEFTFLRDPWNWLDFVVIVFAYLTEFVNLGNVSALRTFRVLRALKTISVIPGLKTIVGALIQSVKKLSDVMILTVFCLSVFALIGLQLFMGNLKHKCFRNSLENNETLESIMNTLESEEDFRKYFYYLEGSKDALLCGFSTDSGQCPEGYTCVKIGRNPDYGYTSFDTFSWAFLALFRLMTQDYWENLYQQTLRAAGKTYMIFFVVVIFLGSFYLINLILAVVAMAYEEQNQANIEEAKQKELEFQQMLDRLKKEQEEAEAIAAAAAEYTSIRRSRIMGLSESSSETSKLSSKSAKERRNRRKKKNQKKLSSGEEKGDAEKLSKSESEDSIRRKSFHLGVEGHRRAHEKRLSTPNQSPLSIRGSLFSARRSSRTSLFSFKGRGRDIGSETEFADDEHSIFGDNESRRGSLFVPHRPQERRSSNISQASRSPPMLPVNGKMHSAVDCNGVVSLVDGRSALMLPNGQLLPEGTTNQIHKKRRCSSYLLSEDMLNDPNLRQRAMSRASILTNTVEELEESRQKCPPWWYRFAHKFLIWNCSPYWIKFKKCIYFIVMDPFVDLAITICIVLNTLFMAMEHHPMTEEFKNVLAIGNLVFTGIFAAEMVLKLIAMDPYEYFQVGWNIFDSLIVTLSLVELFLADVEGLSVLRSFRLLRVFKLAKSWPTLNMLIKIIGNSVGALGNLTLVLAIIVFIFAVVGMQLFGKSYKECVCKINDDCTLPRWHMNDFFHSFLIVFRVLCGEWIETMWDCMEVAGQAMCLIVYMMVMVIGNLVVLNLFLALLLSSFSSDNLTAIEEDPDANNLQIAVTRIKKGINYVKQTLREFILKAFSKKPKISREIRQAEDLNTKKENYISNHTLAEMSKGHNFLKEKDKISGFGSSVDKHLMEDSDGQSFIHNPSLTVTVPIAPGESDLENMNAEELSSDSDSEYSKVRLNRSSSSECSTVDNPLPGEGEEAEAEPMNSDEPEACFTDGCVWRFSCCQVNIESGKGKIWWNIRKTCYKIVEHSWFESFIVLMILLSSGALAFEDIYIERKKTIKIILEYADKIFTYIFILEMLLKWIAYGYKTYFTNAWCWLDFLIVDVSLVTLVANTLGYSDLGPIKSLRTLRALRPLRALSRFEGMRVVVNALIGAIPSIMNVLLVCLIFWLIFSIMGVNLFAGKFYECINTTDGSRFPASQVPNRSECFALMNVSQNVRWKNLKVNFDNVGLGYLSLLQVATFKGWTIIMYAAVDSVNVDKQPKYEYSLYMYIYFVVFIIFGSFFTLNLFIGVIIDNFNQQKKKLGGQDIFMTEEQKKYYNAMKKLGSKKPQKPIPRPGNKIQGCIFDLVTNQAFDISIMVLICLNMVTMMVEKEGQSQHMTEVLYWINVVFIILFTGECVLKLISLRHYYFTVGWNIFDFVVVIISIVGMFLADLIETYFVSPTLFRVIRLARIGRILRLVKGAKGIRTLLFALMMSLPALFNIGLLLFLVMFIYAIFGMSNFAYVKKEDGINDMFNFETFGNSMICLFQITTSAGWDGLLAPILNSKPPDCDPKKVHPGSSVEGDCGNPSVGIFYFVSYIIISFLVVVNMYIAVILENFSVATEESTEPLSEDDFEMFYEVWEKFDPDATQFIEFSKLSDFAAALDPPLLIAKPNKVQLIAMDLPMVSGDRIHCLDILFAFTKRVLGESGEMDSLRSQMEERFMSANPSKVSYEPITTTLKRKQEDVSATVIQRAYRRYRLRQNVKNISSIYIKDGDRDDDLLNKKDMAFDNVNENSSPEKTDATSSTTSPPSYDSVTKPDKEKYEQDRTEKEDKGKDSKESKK
hNav1.7, sequence (Q07699 19-218 partner): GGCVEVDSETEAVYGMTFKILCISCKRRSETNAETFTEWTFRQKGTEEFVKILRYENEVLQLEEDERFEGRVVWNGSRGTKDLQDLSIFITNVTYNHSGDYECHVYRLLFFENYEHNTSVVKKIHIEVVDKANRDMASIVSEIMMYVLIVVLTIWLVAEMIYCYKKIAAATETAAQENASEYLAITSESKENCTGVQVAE

Work on Cn1nc(-c2ccccc2)cc1CN1CCC[C@@H](Oc2cc(F)c(C(=O)NS(C)(=O)=O)cc2C2CC2)C1 [Example 12, (R)-5-cyclopropyl-2-fluoro-4-((1-((1-methyl-3-phenyl-1H-pyrazol-5-yl)methyl)piperidin-3-yl)oxy)-N-(methylsulfonyl)benzamide] yielded an IC50 of 11.3 nM.
CS(=O)(=O)NC(=O)c1cc(C2CC2)c(O[C@@H]2CCCN(Cc3ccnnc3)C2)cc1F [Example 13, (R)-5-cyclopropyl-2-fluoro-N-(methylsulfonyl)-4-((1-(pyridazin-4-ylmethyl)piperidin-3-yl)oxy)benzamide] was tested, and the IC50 was 1490 nM.
Molecule CS(=O)(=O)NC(=O)c1cc(C2CC2)c(O[C@@H]2CCCN(Cc3cccc4c3CNC4)C2)cc1F [Example 14, (R)-5-cyclopropyl-2-fluoro-4-((1-(isoindolin-4-ylmethyl)piperidin-3-yl)oxy)-N-(methylsulfonyl)benzamide] has an IC50 of 318 nM.
O=C(NS(=O)(=O)C1CC1)c1cc(C2CC2)c(O[C@@H]2CCCN(C(c3ccccc3)c3ccccc3)C2)cc1F [Example 16, (R)-4-((1-benzhydrylpiperidin-3-yl)oxy)-5-cyclopropyl-N-(cyclopropylsulfonyl)-2-fluorobenzamide] showed an IC50 of 3.4 nM.
O=C(NS(=O)(=O)C1CC1)c1cc(C2CC2)c(O[C@@H]2CCCN(Cc3ccc(Cl)c(Cl)c3)C2)cc1F [Example 18, (R)-5-cyclopropyl-N-(cyclopropylsulfonyl)-4-((1-(3,4-dichlorobenzyl)-piperidin-3-yl)oxy)-2-fluorobenzamide] gave an IC50 of 2.6 nM.
O=C(NS(=O)(=O)N1CCC1)c1cc(C2CC2)c(O[C@@H]2CCCN(Cc3ccc(Cl)c(Cl)c3)C2)cc1F [Example 19, (R)—N-(azetidin-1-ylsulfonyl)-5-cyclopropyl-4-((1-(3,4-dichlorobenzyl)piperidin-3-yl)oxy)-2-fluorobenzamide] gave an IC50 of 4.9 nM.
With CS(=O)(=O)NC(=O)c1cc(C2CC2)c(O[C@@H]2CCCN(Cc3ccc(F)cc3)C2)cc1F [Example 20, (R)-5-cyclopropyl-2-fluoro-4-((1-(4-fluorobenzyl)piperidin-3-yl)oxy)-N-(methlysulfonyl)benzamide] the IC50 was 30.9 nM.
With O=C(NS(=O)(=O)C1CC1)c1cc(C2CC2)c(O[C@@H]2CCCN(Cc3ccc(F)cc3)C2)cc1F [Example 21, (R)-5-cyclopropyl-N-(cyclopropylsulfonyl)-2-fluoro-4-((1-(4-fluorobenzyl)piperidin-3-yl)oxy)benzamide] the IC50 was 11.2 nM.
With O=C(NS(=O)(=O)N1CCC1)c1cc(C2CC2)c(O[C@@H]2CCCN(Cc3ccc(F)cc3)C2)cc1F [Example 22] the IC50 was 18.2 nM.
With O=C(NS(=O)(=O)C1CC1)c1cc(C2CC2)c(O[C@@H]2CCCN(Cc3ccccc3Cl)C2)cc1F [Example 23, (R)-4-((1-(2-chlorobenzyl)piperidin-3-yl)oxy)-5-cyclopropyl-N-(cyclopropylsulfonyl)-2-fluorobenzamide] the IC50 was 1.7 nM.
Work on CS(=O)(=O)NC(=O)c1cc(C2CC2)c(O[C@@H]2CCCN(Cc3ccccc3Cl)C2)cc1F [Example 24, (R)-4-((1-(2-chlorobenzyl)piperidin-3-yl)oxy)-5-cyclopropyl-2-fluoro-N-(methylsulfonyl)benzamide] yielded an IC50 of 6 nM.
For O=C(NS(=O)(=O)N1CCC1)c1cc(C2CC2)c(O[C@@H]2CCCN(Cc3ccccc3Cl)C2)cc1F [Example 25, (R)—N-(azetidin-1-ylsulfonyl)-4-((1-(2-chlorobenzyl)piperidin-3-yl)oxy)-5-cyclopropyl-2-fluorobenzamide], the IC50 was 3.2 nM.
CS(=O)(=O)NC(=O)c1cc(C2CC2)c(O[C@@H]2CCCN(Cc3cccc(Cl)c3)C2)cc1F [Example 26, (R)-4-((1-(3-chlorobenzyl)piperidin-3-yl)oxy)-5-cyclopropyl-2-fluoro-N-(methylsulfonyl)benzamide acid] showed an IC50 of 6.1 nM.
Work on O=C(NS(=O)(=O)N1CCC1)c1cc(C2CC2)c(O[C@@H]2CCCN(Cc3cccc(Cl)c3)C2)cc1F [Example 28, (R)—N-(azetidin-1-ylsulfonyl)-4-((1-(3-chlorobenzyl)piperidin-3-yl)oxy)-5-cyclopropyl-2-fluorobenzamide] yielded an IC50 of 7.4 nM.
In the case of CS(=O)(=O)NC(=O)c1cc(C2CC2)c(O[C@@H]2CCCN(Cc3ccc(Cl)cc3Cl)C2)cc1F [Example 29, (R)-5-cyclopropyl-4-((1-(2,4-dichlorobenzyl)piperidin-3-yl)oxy)-2-fluoro-N-(methylsulfonyl)benzamide], the IC50 is reported as 1.7 nM.
With O=C(NS(=O)(=O)N1CCC1)c1cc(C2CC2)c(O[C@@H]2CCCN(Cc3ccc(Cl)cc3Cl)C2)cc1F [Example 30, (R)—N-(azetidin-1-ylsulfonyl)-5-cyclopropyl-4-((1-(2,4-dichlorobenzyl)piperidin-3-yl)oxy)-2-fluorobenzamide] the IC50 was 2.7 nM.
In the case of O=C(NS(=O)(=O)C1CC1)c1cc(C2CC2)c(O[C@@H]2CCCN(Cc3ccc(Cl)cc3Cl)C2)cc1F [Example 31, (R)-5-cyclopropyl-N-(cyclopropylsulfonyl)-4-((1-(2,4-dichlorobenzyl)piperidin-3-yl)oxy)-2-fluorobenzamide], the IC50 is reported as 2.6 nM.
In the case of Cc1ccc(CN2CCC[C@@H](Oc3cc(F)c(C(=O)NS(=O)(=O)C4CC4)cc3C3CC3)C2)cc1 [Example 32, (R)-5-cyclopropyl-N-(cyclopropylsulfonyl)-2-fluoro-4-((1-(4-methylbenzyl)piperidin-3-yl)oxy)benzamide], the IC50 is reported as 5.4 nM.
Cc1ccc(CN2CCC[C@@H](Oc3cc(F)c(C(=O)NS(=O)(=O)N4CCC4)cc3C3CC3)C2)cc1 [Example 33, (R)—N-(azetidin-1-ylsulfonyl)-5-cyclopropyl-2-4-fluoro-((1-(4-methylbenzyl)piperidin-3-yl)oxy)benzamide] gave an IC50 of 13.2 nM.
With CS(=O)(=O)NC(=O)c1cc(C2CC2)c(O[C@@H]2CCCN(Cc3ccc(F)cc3C(F)(F)F)C2)cc1F [Example 34, (R)-5-cyclopropyl-2-fluoro-4-((1-(4-fluoro-2-(trifluoromethyl)benzyl)piperidin-3-yl)oxy)-N-(methylsulfonyl)benzamide] the IC50 was 1.9 nM.
O=C(NS(=O)(=O)C1CC1)c1cc(C2CC2)c(O[C@@H]2CCCN(Cc3ccc(F)cc3C(F)(F)F)C2)cc1F [Example 35] showed an IC50 of 2.4 nM.
For O=C(NS(=O)(=O)N1CCC1)c1cc(C2CC2)c(O[C@@H]2CCCN(Cc3ccc(F)cc3C(F)(F)F)C2)cc1F [Example 36, (R)—N-(azetidin-1-ylsulfonyl)-5-cyclopropyl-2-fluoro-4-((1-(4-fluoro-2-(trifluoromethyl)benzyl)piperidin-3-yl)oxy)benzamide], the IC50 was 3.6 nM.
O=C(NS(=O)(=O)N1CCC1)c1cc(C2CC2)c(O[C@@H]2CCCN(c3ccc(F)cc3)C2)cc1F [Example 37, (R)—N-(azetidin-1-ylsulfonyl)-5-cyclopropyl-2-fluoro-4-((1-(4-fluorophenyl)piperidin-3-yl)oxy)benzamide, trifluoroacetic acid salt] was tested, and the IC50 was 15.1 nM.
For O=C(NS(=O)(=O)C1CC1)c1cc(C2CC2)c(O[C@@H]2CCCN(c3ccc(F)cc3)C2)cc1F [Example 38, (R)-5-cyclopropyl-N-(cyclopropylsulfonyl)-2-fluoro-4-((1-(4-fluorophenyl)piperidin-3-yl)oxy)benzamide], the IC50 was 3.9 nM.
O=C(NS(=O)(=O)C1CC1)c1cc(Cl)c(O[C@@H]2CCCN(Cc3ccc(F)cc3Cl)C2)cc1F.O=C(O)C(Cl)(Cl)Cl [Example 39, (R)-5-chloro-4-((1-(2-chloro-4-fluorobenzyl)piperidin-3-yl)oxy)-N-(cyclopropylsulfonyl)-2-fluorobenzamide, trichloroacetic acid salt] showed an IC50 of 6.8 nM.
O=C(NS(=O)(=O)C1CC1)c1cc(C2CC2)c(O[C@@H]2CCCN(c3cc(Cl)cc(Cl)c3)C2)cc1F [Example 42, (R)-5-cyclopropyl-N-(cyclopropylsulfonyl)-4-((1-(3,5-dichlorophenyl)piperidin-3-yl)oxy)-2-fluorobenzamide] was tested, and the IC50 was 2.1 nM.
O=C(NS(=O)(=O)N1CCC1)c1cc(C2CC2)c(O[C@@H]2CCCN(c3cc(Cl)cc(Cl)c3)C2)cc1F [Example 43, (R)—N-(azetidin-1-ylsulfonyl)-5-cyclopropyl-4-((1-(3,5-dichlorophenyl)piperidin-3-yl)oxy)-2-fluorobenzamide] showed an IC50 of 4.9 nM.
Molecule CS(=O)(=O)NC(=O)c1cc(C2CC2)c(O[C@@H]2CCCN(c3cc(Cl)cc(Cl)c3)C2)cc1F [Example 44, (R)-5-cyclopropyl-4-((1-(3,5-dichlorophenyl)piperidin-3-yl)oxy)-2-fluoro-N-(methylsulfonyl)benzamide] has an IC50 of 3.6 nM.
O=C(NS(=O)(=O)N1CCC1)c1cc(C2CC2)c(O[C@H]2CCN(Cc3ccccc3)C2)cc1F [Example 45, (S)—N-(azetidin-1-ylsulfonyl)-4-((1-benzylyprrolidin-3-yl)oxy)-5-cyclopropyl-2-fluorobenzamide] was tested, and the IC50 [1] was 4580 nM.
Molecule O=C(NS(=O)(=O)N1CCC1)c1cc(C2CC2)c(O[C@@H]2CCN(Cc3ccccc3)C2)cc1F [Example 46, (R)—N-(azetidin-1-ylsulfonyl)-4-((1-benzylpyrrolidin-3-yl)oxy)-5-cyclopropyl-2-fluorobenzamide] has an IC50 [1] of 920 nM.
Molecule O=C(NS(=O)(=O)N1CCC1)c1cc(C2CC2)c(OCC2CC3CCC(C2)N3Cc2ccccc2Cl)cc1F (stereo not shown) [Example 47, N-(azetidin-1-ylsulfonyl)-4-((8-(2-chlorobenzyl)-8-azabicyclo[3.2.1]octan-3-yl)methoxy)-5-cyclopropyl-2-fluorobenzamide] has an IC50 [1] of 25.1 nM.
Work on O=C(NS(=O)(=O)N1CCC1)c1cc(C2CC2)c(OCC2CC3CCC(C2)N3Cc2ccccc2)cc1F (stereo not shown) [Example 48, N-(azetidin-1-ylsulfonyl)-4-((8-benzyl-8-azabicyclo[3.2.1]octan-3-yl)methoxy)-5-cyclopropyl-2-fluorobenzamide] yielded an IC50 [1] of 2820 nM.
In the case of C[C@@H]1CC[C@@H](Oc2cc(F)c(C(=O)NS(C)(=O)=O)cc2C2CC2)CN1Cc1ccc(F)cc1Cl [Example 52], the IC50 [1] is reported as less than 1.6 nM.
Work on O=C(NS(=O)(=O)C1CC1)c1cc(C2CC2)c(CN2CCC[C@H](Oc3cc(Cl)cc(Cl)c3)C2)cc1F [Example 53, (S)-5-cyclopropyl-N-(cyclopropylsulfonyl)-4-((3-(3,5-dichlorophenoxy)-piperidin-1-yl)methyl)-2-fluorobenzamide] yielded an IC50 [1] of 8 nM.
